Laboratory results reported in US20030077653A1, “Method for the identification of active site protease inactivators” (The University of Georgia Research Foundation, Inc., priority 2000, published 2003).
Starred links: 1 amine or outer side, 2 acyl side, 3 side chain; linkers in the order of their positions; H or OH if unused. Residues, ends and D or L forms follow the SMILES beside them. *: point of attachment. AFC = O=c1cc(C(F)(F)F)c2ccc(N*)cc2o1; Morpholide = C1CN(*)CCO1; Cbz = O=C(OCc1ccccc1)*; CO = O=C([*:1])[*:2]; CH2F = FC*

How the values were obtained:
Cathepsin B = Cathepsin B (Homo sapiens, UniProt P07858); assay: Differential cleavage (selectivity) test; type: biochemical; details: pH 6.1, Z-ARR-AFC
Description: (§1) In order to perform the assay, the vehicle (for Step VI) or inhibitor (for Step IX) were incubated with the appropriate substrate in the correct assay buffer and allowed to equilibrate. Subsequently, the protease was added, and the assay was allowed to incubate for an appropriate time. The concentrations used in this experiment were as follows: Vehicle was set up at 4×10^−5 M in final assay buffer; Inhibitor was set up at 3×10^−10 M in the final assay buffer. Accordingly, the dosages employed should be the minimal amount of vehicle or inhibitor necessary to induce inhibition. […] Substrates were set up based upon the preferred substrate for cleavage of the particular enzyme.
(§2) Positive controls were set up similarly as described for test controls, except that solvent was added in substitution for the inhibitor or vehicle (in a volume equal to the volume of inhibitor or vehicle addition). All of the inhibitors and vehicles could be dissolved in dimethylsulfoxide (DMSO), and therefore, this was the solvent of choice. Negative controls were set up by adding the inhibitor or vehicle and the preferred substrates in a tube without the protease. All potential non-proteolytic liberation of AFC was therefore controlled for in this tube (a feature which also insured stability of the AFC substrates, since these substrates will freely liberate AFC when unstable).
(§3) All controls were set up in triplicate, and experiments were repeated a minimum of five times.
(§4) Percent inhibition was calculated as: [formula]
(§5) In this preliminary test, we employed the following human-derived enzymes (with indicated mechanistic class): Cathepsin B (cysteine), Cathepsin L (cysteine), Cathepsin H (cysteine), Cathepsin D (aspartic) Trypsin (serine), the purified Taenia solium cysteine protease, and the Taenia solium crude mix. Cathepsin B was prepared in an assay buffer of 10 mM L-cysteine in 0.4 M Citrate buffer, pH 6. 1, using Z-ARR-AFC as the cleavage substrate. Cathepsin L was prepared in an assay buffer of 10 mM L-cysteine in 0.4 M Citrate buffer, pH 5.5, using Z-FR-AFC as the cleavage substrate. Cathepsin H was prepared in an assay buffer of 10 mM L-cysteine in 0.15 M PBS buffer, pH 6.8, using L- R-AFC as the cleavage substrate. Cathepsin D was prepared in an assay buffer of 0.15 M PBS, pH 7.1, using Z-RGFFP-AFC as the cleavage substrate. Trypsin was prepared in an assay buffer of 0.15 M PBS, pH 8.0, supplemented with 100 mM CaCl2 and with Z-R-AFC as the cleavage substrate. Enzyme was incubated so that it was at least 50 times less than the concentration of substrate in order to insure saturating conditions.

Cathepsin D = Cathepsin D (Homo sapiens, UniProt P07339); assay: Differential cleavage (selectivity) test; type: biochemical; details: pH 7.1, Z-RGFFP-AFC
Description: as §1, §2, §3, §4, §5

Cathepsin H = target: T1, Cathepsin H (Homo sapiens, UniProt P09668); assay: Differential cleavage (selectivity) test; type: biochemical; details: pH 6.8, L-R-AFC
T1 sequence (P09668 98-335): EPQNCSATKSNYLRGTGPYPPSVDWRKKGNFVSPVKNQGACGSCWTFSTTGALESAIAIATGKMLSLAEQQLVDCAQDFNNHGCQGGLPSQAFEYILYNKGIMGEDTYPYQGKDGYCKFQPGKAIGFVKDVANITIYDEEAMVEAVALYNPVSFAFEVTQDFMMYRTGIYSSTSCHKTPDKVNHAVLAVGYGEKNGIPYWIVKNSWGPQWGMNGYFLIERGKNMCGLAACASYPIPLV
Description: as §1, §2, §3, §4, §5

Trypsin = assay: Differential cleavage (selectivity) test; type: biochemical, human; details: pH 8.0, Z-R-AFC
Description: as §1, §2, §3, §4, §5

[1] = Observation of side effects in treated mice; type: in vivo; details: BALB/c mice; for side effects in mice, long-term study: 30 days treatment, 5 months follow-up
Description: FIG. 8. […] Each treated mouse was pre-injected intraperitoneally with inhibitor for two days. During treatment phase, each treated mouse received 1.48×10^−2 μg/μl of N2 daily for three weeks and every other day during the last week. Injections were carried out in 150 μl of dimethyl sulfoxide for each mouse. Both treated groups and positive controls were challenged intraperitoneally with 10 Taenia crassiceps cysts in 200 μl 0.15M PBS at the time of initial infection. After one month of infection, both groups were euthanized and cysts removed by washing with sterile 0.15M PBS. A minimum of two attached cysts were scored as multilobed (ML). […] (B) Graphically represents the effect of protease inhibitor treatment of BALB/c mice challenged with Taenia crassiceps cysts over a long-term period. Mice were divided into treated and untreated groups (5 mice/group).Each mouse in the treated group was pre-injected intraperitoneally with inhibitor for two days. Subsequently, all groups were challenged with 10 T. crassiceps cysts in 200 μl of 0.15M PBS. Treatment with inhibitor or placebo (0.15M PBS) was carried out every day for 30 days post-challenge. Cysts were left alone (untreated) for 5 months, and then euthanized. Cysts were then counted by visual inspection. Percent protection is based on the reduction of the total cyst number in comparison to control mice, which never received any treatment.
Mice in all groups survived without noticeable side effects (e.g., coat condition, tail dragging or paresis, etc).
Long-term studies were also conducted to determine over how long a period these inhibitors would maintain a protective effect. In a representative experiment shown here, mice were divided into treated and untreated groups (5 mice/group). Each mouse in the treated group was pre-injected intraperitoneally with inhibitor for two days. Subsequently, all groups were challenged with 10 T. crassiceps cysts in 200 μl 0.1 5M PBS. Treatment with inhibitor or placebo (0. 15M PBS) was carried out every day for 30 days post- challenge. […] Cysts were then counted by visual inspection. […]

Cathepsin D, sequence (P07339 65-412): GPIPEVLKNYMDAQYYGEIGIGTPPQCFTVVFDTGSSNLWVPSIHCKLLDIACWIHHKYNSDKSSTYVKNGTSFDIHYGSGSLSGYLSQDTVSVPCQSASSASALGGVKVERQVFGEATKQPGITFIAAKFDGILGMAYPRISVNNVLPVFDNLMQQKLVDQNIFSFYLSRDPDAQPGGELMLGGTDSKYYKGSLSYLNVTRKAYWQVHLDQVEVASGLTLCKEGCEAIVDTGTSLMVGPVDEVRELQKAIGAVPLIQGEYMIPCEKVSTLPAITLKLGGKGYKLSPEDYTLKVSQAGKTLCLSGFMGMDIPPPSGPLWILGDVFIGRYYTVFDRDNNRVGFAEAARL

SMILES	Percent inhibition of Cathepsin B (cysteine) (Cathepsin B; vehicle 4×10^−5 M) [%]	Percent inhibition of Cathepsin D (aspartic) (Cathepsin D; vehicle 4×10^−5 M) [%]	Percent inhibition of Cathepsin H (cysteine) (Cathepsin H; vehicle 4×10^−5 M) [%]	Percent inhibition of Trypsin (serine) (Trypsin; vehicle 4×10^−5 M) [%]	Percent inhibition of Cathepsin B (cysteine) (Cathepsin B; inhibitor 3×10^−10 M) [%]	Percent inhibition of Cathepsin D (aspartic) (Cathepsin D; inhibitor 3×10^−10 M) [%]	Percent inhibition of Cathepsin H (cysteine) (Cathepsin H; inhibitor 3×10^−10 M) [%]	Percent inhibition of Trypsin (serine) (Trypsin; inhibitor 3×10^−10 M) [%]	side effects in mice, long-term study [1]	side effects / inhibitor toxicity in mice, short-term studies ([1]; one month, visual inspection)
CC(C)C[C@H](NC(=O)N1CCOCC1)C(=O)N[C@@H](Cc1ccc(O)cc1)C(=O)Nc1ccc2c(C(F)(F)F)cc(=O)oc2c1 [Mu-LY-AFC, Mu-Leu-Tyr-AFC] ({Morpholide-CO}-Leu-Tyr-{AFC})	0	0	0	0						
CC(C)C[C@H](NC(=O)[C@H](CC(C)C)NC(=O)[C@H](CC(C)C)NC(=O)OCc1ccccc1)C(=O)CF [Z-LLL-FMK, Z-Leu-Leu-Leu-fluoromethylketone] (Cbz-Leu-Leu-Leu-CH2F)					0	0	0	0	no side effects	
CC(C)C[C@H](NC(=O)OCc1ccccc1)C(=O)N[C@@H](CC(C)C)C(=O)N[C@@H](Cc1ccc(O)cc1)C(=O)CF [Z-LLY-FMK, Z-Leu-Leu-Tyr-FMK] (Cbz-Leu-Leu-Tyr-CH2F)					0	0	0	0	no side effects	no mice showed effects of inhibitor toxicity
